Values of other authors, collected in US20160143918A1, “DRUG RELEASING AGENT BASED ON beta-SITOSTEROL AND A PREPARATION METHOD THEREOF” (School of Medicine Jiaying University, priority 2014, published 2016).

Question: What does the source list for `CC[C@H](CC[C@@H](C)[C@H]1CC[C@H]2[C@@H]3CC=C4C[C@@H](O)CC[C@]4(C)[C@H]3CC[C@]12C)C(C)C` [β-sitosterol]?
Answer: solubility in organic solvents (organic solvents): soluble in organic solvents; solubility in water (water): insoluble in water
